Type in all cases: cell-based
In assay [1] the test system is estrogen responsive reporter gene, ERE-tk109-Luc, in MCF-7 cells. The experiment in a line: Inhibition of E2-stimulated transcription of ERE-tk109-Luc reporter gene in MCF-7 cells. The settings on record: Homo sapiens. (In general: Reporter assays use an easily measured gene product as a stand-in for the process of interest.)
Assay [2] concerns the target T1, glucocorticoid receptor (GR) (Homo sapiens, UniProt P04150).
T1 construct: HeLa cells were transfected as above but also with plasmids for full length wild; expressed in transfected cells; host or cells: HeLa
T1 sequence (P04150 1-777): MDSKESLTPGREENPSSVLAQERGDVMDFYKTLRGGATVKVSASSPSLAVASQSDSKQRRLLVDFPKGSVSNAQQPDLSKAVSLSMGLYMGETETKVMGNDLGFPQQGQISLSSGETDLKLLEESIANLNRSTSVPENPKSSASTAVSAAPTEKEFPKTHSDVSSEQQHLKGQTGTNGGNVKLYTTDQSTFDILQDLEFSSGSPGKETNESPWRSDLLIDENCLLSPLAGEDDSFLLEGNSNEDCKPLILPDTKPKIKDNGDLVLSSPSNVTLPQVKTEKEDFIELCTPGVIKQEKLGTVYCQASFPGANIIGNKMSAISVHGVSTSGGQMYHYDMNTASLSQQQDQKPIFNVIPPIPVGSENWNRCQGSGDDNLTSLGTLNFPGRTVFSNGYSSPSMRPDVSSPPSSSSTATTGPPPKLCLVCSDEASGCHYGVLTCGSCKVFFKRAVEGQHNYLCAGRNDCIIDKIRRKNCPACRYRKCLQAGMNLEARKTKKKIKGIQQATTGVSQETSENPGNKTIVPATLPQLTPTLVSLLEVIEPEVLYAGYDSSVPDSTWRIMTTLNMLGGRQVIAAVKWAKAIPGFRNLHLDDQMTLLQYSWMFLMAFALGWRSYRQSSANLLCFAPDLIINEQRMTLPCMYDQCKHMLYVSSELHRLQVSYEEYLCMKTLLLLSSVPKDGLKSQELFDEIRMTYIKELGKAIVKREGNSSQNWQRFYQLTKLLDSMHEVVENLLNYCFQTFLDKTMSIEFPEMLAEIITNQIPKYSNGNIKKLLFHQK
The assay is described as follows: PRE3X-TATA-Luc reporter in HeLa cells transfected with GR. The conditions noted are these: alone or + 32 nM Dex, 22 h. The procedure: (§1) representative experiment. […]
(§2) receptor (AR, (B)), glucocorticoid receptor (GR, (C)), and the B-isoform of the progesterone receptor (PR-B, (D)). HeLa cells were transfected with the designated wild type receptor along with reporter gene PRE3X-TATA-Luc, which is promiscuously activated with known agonists specific for each receptor: R1881 for AR, dexamethasone (Dex) for GR, and medroxyprogesterone acetate (MPA) for PR-B. Each receptor was also dosed with one concentration of known antagonist for each receptor: 32 nM bicalutamide for AR, and 500 nM RU486 for GR and PR. Transfected cells were treated with the designated ligands for 22 hours and luciferase activity assayed. Shown are representative experiments, independently performed at least 3 times. Note that curves for agonists for each receptor were performed in separate experiments. Shown are means with SEM, normalized to percent of 32 nM R1881 for AR, 32 nM Dex for GR, and 0.5 µM MPA for PR-B (except with MPA alone, which was normalized to […]
(§3) either ERα or ERβ, and 85 ng ERE-3x-Luc, containing 3 copies of estrogen-response element (ERE) cloned into pGL4.23 luciferase reporter gene containing a minimal TATA promoter […]
(§4) hours (1.25% total final charcoal dextran stripped FBS). Bright Glo luciferase reagent (Promega) […]

For assay [3], the target named is T2, androgen receptor (AR) (Homo sapiens, UniProt P10275).
T2 construct: HeLa cells were transfected as above but also with plasmids for full length wild; expressed in transfected cells; host or cells: HeLa
T2 sequence (P10275 1-920): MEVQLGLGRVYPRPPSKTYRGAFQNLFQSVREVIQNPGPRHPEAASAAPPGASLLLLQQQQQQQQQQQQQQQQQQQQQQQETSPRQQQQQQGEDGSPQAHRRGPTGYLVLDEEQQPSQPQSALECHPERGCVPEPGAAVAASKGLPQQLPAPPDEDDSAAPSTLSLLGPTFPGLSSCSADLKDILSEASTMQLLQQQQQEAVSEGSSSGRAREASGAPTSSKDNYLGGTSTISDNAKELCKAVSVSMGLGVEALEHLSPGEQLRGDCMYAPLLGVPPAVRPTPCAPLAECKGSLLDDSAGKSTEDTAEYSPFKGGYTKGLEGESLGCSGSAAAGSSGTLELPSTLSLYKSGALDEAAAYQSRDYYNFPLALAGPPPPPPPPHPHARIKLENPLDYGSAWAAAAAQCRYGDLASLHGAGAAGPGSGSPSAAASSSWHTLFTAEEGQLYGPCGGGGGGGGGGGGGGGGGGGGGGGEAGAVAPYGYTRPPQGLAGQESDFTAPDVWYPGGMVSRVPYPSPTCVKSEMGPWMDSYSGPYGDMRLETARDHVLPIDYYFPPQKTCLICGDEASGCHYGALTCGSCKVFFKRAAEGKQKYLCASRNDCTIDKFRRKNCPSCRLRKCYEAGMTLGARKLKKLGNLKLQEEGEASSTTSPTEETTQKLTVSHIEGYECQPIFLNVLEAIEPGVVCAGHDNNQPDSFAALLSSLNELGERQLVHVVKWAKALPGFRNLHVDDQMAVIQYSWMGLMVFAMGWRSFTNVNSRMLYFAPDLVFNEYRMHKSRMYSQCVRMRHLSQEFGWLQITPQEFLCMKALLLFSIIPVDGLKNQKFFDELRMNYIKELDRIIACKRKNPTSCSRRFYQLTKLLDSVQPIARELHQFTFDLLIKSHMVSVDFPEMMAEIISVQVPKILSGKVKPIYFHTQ
The assay is described as follows: PRE3X-TATA-Luc reporter in HeLa cells transfected with AR. The settings on record: alone or + 32 nM R1881, 22 h. The procedure:
as §1, §2, §3, §4

Structures are written as SMILES. Like-named read-outs stand apart in the source and are kept apart here.

In the case of `CC1=C(c2ccc(O)cc2)[C@H](c2ccc(OCCN3CC[C@@H](C)C3)cc2)Oc2cc(O)ccc21` [OP-1074], the half-inhibitory concentration (IC50) – broadly, the concentration that gives 50% inhibition – in assay [1] (MCF7, 22 h, read-out: IC50 inhibition of E2-stimulated transcription (Fig. 3a)) was found to be 3.2 nM; in assay [1] (MCF7, 24 h, read-out: IC50 transcription) it was 1.8 ± 0.3 nM. The “Agonist and antagonist activity on GR” value in assay [2] is “lacks agonist and antagonist activity”. Further, in assay [3], the “Agonist and antagonist activity on AR” value is “lacks agonist and antagonist activity”.
